# According to article PMC11413853, “Discovery of VU6007496: Challenges in the Development of an M1 Positive Allosteric Modulator Backup Candidate” (ACS Chemical Neuroscience, 2024):
# Experiments:
# Endothelin ETA = assay: Eurofins radioligand binding; set-up: species or system Human; conditions: specific binding
# Hepatocyte MET ID, human = assay type: in vitro ADME; conditions: 4-h incubation
# Text: (§1) More concerning were the results generated via outsourced multispecies hepatocyte MET ID, which were drastically different than the liver S9MET ID. The extent of metabolism for VU6007496 with rat, dog, monkey and human hepatocytes was 64.7, 51.5, 63.9 and 99.5%, respectively (Figure 8). […] In human hepatocytes, PAM 11 was metabolized primarily to Metabolite A (24), the result of oxidative N-demethylation of the southern pyrazole. The other minor metabolites were oxidation on the tetrahydropyran moiety and included ring opening (Metabolite F, 25).[21]
# Sigma σ1 = assay: Eurofins radioligand binding; set-up: species or system Human; conditions: specific binding
# rCYP2J2 = assay: Substrate depletion with recombinant human CYPs, rCYP2J2; assay type: in vitro ADME
# Text: To advance 11 as a candidate and into IND-enabling studies, we next needed to better understand its CYP profile to minimize drug–drug interactions in the clinic. […] We were pleased to see the contribution of another CYP beyond 3A4 for the metabolism of 11.[21] In parallel, we investigated the ability of PAM 11 to induce the expression of CYP450s (measuring mRNA) in cryopreserved human hepatocytes from three separate donors.
# GABAA, Muscimol, Central = assay: Eurofins radioligand binding; set-up: species or system Rat; conditions: specific binding
# Adrenergic β1 = assay: Eurofins radioligand binding; set-up: species or system Human; conditions: specific binding
# [1] = system: Transporter, Norepinephrine (NET); assay: Eurofins radioligand binding; set-up: species or system Human; conditions: specific binding
# [2] = system: Calcium Channel L-Type, Dihydropyridine; assay: Eurofins radioligand binding; set-up: species or system Rat; conditions: specific binding
# rats = assay: Novel object recognition (NOR) test; assay type: in vivo, rat
# Procedure: Novel Object Recognition Task
# Rats were habituated for 10 min for 2 consecutive days in an empty novel object recognition (NOR) arena consisting of dark-colored plexiglass box (40 × 64 × 33 cm3). On day 3, rats were administered vehicle (0.5% natrasol/0.015% Tween80) or M1 PAM (0.1-3 mg/kg, p.o.., 10 mL/kg, n = 15-18) and returned to their home cage for 30 min. Rats were then placed in the NOR arena containing two identical objects for 10 min. Following the exposure period, rats were placed back into their home cages for 24 h. The rats were then returned to the arena in which one of the previously exposed (familiar) objects was replaced by a novel object and were video recorded for 5 min while they explored the two objects. Time spent exploring each object was scored by an observer blinded to the experimental conditions and the recognition index was calculated as [(time spent exploring novel object) – (time spent exploring familiar object)]/total time exploring objects.
# Supplemental field electrophysiology methods
# Recording pipettes were constructed from thin-walled borosilicate capillary glass tubing (I.D.=1.17 mm, O.D. 1.50 mm; Warner Instruments, Hamden, CT), pulled with a horizontal pipette puller (P-97 Sutter Instrument Co., Novata, CA) to a resistance of 1-3MΩ when filled with ACSF. […]
# Rolipram = assay: Eurofins radioligand binding; set-up: species or system Rat; conditions: specific binding
# Bradykinin B1 = assay: Eurofins radioligand binding; set-up: species or system Human; conditions: specific binding
# Glutamate, NMDA, Glycine = Glutamate, NMDA, Glycine (Rattus norvegicus, UniProt P35439); assay: Eurofins radioligand binding; conditions: specific binding
# Chain of Glutamate, NMDA, Glycine (P35439 394-800 limits assumed): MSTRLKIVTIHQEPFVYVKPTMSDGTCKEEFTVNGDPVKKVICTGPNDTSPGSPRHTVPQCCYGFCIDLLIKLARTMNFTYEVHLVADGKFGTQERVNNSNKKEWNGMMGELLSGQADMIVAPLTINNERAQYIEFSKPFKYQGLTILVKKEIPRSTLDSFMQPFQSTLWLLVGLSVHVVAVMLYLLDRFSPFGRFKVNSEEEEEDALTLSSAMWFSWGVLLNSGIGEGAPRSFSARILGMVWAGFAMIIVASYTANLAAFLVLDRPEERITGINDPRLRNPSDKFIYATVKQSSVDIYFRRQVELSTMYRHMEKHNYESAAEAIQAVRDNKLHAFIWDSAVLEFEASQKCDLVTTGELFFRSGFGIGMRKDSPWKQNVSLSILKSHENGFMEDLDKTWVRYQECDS
# Histamine H3 = assay: Eurofins radioligand binding; set-up: species or system Human; conditions: specific binding
# Serotonin (5-HT2B) = assay: Eurofins radioligand binding; set-up: species or system Human; conditions: specific binding
# Glutamate, NMDA, Agonism = assay: Eurofins radioligand binding; set-up: species or system Rat; conditions: specific binding
# Muscarinic M1 = assay: Eurofins radioligand binding; set-up: species or system Human; conditions: specific binding
# Adrenergic α1B = assay: Eurofins radioligand binding; set-up: species or system Human; conditions: specific binding
# Estrogen ERα = assay: Eurofins radioligand binding; set-up: species or system Human; conditions: specific binding
# hHCN2 = system: T1, hHCN2; assay: Ion channel current (Charles River Study 200609.WVN); assay type: cell-based, human; conditions: 10 μM; n 3
# T1 construct: Charles River
# Text: (§2) Table S2. Effects of VU6007496 on Ion Channel Current (Charles River Study 200609.WVN)
# (§3) Ion Channel Conc Mean % Standard Standard n Individual Data
# (§4) (μM) Inhibition Deviation Error Points (% Inhibition)
# hCav1.2 = system: T2, hCav1.2; assay: as above; assay type: cell-based, human; conditions: 10 μM; n 4
# T2 construct: Charles River
# Text: as §2, §3, §4
# hKvLQT1/minK = system: T3, hKvLQT1/minK; assay: as above; assay type: cell-based, human; conditions: 10 μM; n 4
# T3 construct: Charles River
# Text: as §2, §3, §4
# Hepatocyte MET ID, rat = assay type: in vitro ADME; conditions: 4-h incubation
# Text: as §1
# [3] = system: Transporter, Serotonin (SERT); assay: Eurofins radioligand binding; set-up: species or system Human; conditions: specific binding
# Hepatocyte MET ID, dog = assay type: in vitro ADME; conditions: 4-h incubation
# Text: as §1
# Thyroid Hormone = assay: Eurofins radioligand binding; set-up: species or system Rat; conditions: specific binding
# Endothelin ETB = assay: Eurofins radioligand binding; set-up: species or system Human; conditions: specific binding
# Muscarinic M3 = assay: Eurofins radioligand binding; set-up: species or system Human; conditions: specific binding
smiles,measurement,setting,value
Cn1ccc(-c2ccc(Cc3cc(C(=O)NC4CCOCC4)nc4ccn(C)c34)cc2)n1 [compound 11],% Inhibition at 10 µM,Endothelin ETA,3%
same,"extent of metabolism, human hepatocytes","Hepatocyte MET ID, human",99.5%
same,% Inhibition at 10 µM,Sigma σ1,-8%
same,"share of hepatic CYP-mediated clearance, rCYP2J2",rCYP2J2,2.4%
same,% Inhibition at 10 µM,"GABAA, Muscimol, Central",-1%
same,% Inhibition at 10 µM,Adrenergic β1,-14%
same,% Inhibition at 10 µM,[1],12%
same,% Inhibition at 10 µM,[2],-8%
same,effect on recognition memory (NOR),"rats; rats, 0.1, 0.3, 1, and 3 mg/kg p.o., 30 min pretreatment, assessed 24 h later",dose-dependently enhanced recognition memory
same,minimum effective dose (MED) in novel object recognition,"rats; rats, p.o.",3 mg/kg
same,% Inhibition at 10 µM,Rolipram,10%
same,% Inhibition at 10 µM,Bradykinin B1,21%
same,inhibition at 10 µM,"Glutamate, NMDA, Glycine",0%
same,% Inhibition at 10 µM,Histamine H3,-12%
same,% Inhibition at 10 µM,Serotonin (5-HT2B),7%
same,% Inhibition at 10 µM,"Glutamate, NMDA, Agonism",0%
same,% Inhibition at 10 µM,Muscarinic M1,-8%
same,% Inhibition at 10 µM,Adrenergic α1B,14%
same,% Inhibition at 10 µM,Estrogen ERα,5%
same,Mean % Inhibition,hHCN2,4.9%
same,Mean % Inhibition,hCav1.2,12.8%
same,Mean % Inhibition,hKvLQT1/minK,13.5%
same,"extent of metabolism, rat hepatocytes","Hepatocyte MET ID, rat",64.7%
same,% Inhibition at 10 µM,[3],-7%
same,"extent of metabolism, dog hepatocytes","Hepatocyte MET ID, dog",51.5%
same,% Inhibition at 10 µM,Thyroid Hormone,2%
same,% Inhibition at 10 µM,Endothelin ETB,-5%
same,% Inhibition at 10 µM,Muscarinic M3,-4%
